Results reported in US6579708B1, “Human uridine kinase” (SmithKline Beecham Corporation, priority 2000, dated 2003).
Like-named read-outs stand apart in the source and are kept apart here.

B1: Human Uridine Kinase: novel human UDK gene product expressed in E.coli from pET 16b, purified by Ni-NTA affinity chromatography (protein)
chain: MASAGGEDCESPAPEADRPHQRPFLIGVSGGTASGKSTVCEKIMELLGQNEVEQRQRKVVILSQDRFYKVLTAEQKAKALKGQYNFDHPDAFDNDLMHRTLKNIVEGKTVEVPTYDFVTHSRLPETTVVYPADVVLFEGILVFYSQEIRDMFHLRLFVDTDSDVRLSRRVLRDVRRGRDLEQILTQYTTFVKPAFEEFCLPTKKYADVIIPRGVDNMVAINLIVQHIQDILNGDICKWHRGGSNGRSYKRTFSEPGDHPG
modifications: His tag from pET16b; Human

Experiments:
uridine kinase [1] = conditions: cited from earlier work
uridine kinase [2] = conditions: cited from earlier work; remark: listed apart in the source
[3] = Characterization of recombinant His-tagged human uridine kinase expressed in E.coli; format: biochemical
From the text: The novel human UDK gene has been cloned into an expression vector pET 16b (Novagen) with a His tag at its NH2-terminus. The gene was expressed in E.coli and has been purified to >95% purity by Ni-NTA affinity chromatography.

Molecule | Km (uridine kinase [1]; normal ovary) | Km (uridine kinase [1]; ovarian carcinoma) | Km (uridine kinase [2]; normal rat liver) | Km (uridine kinase [2]; rapidly growing hepatoma 3924A) | Optimum pH [3] | Specific Activity ([3]; purified enzyme, His tag at NH2-terminus) | enzymatic activity ([3]; with the His tag)
O=c1ccn([C@@H]2O[C@H](CO)[C@@H](O)[C@H]2O)c(=O)[nH]1 [uridine] | 11500 µM | 500 µM | 5000 µM | 800 µM |  |  | 
B1 |  |  |  |  | 9.0 | 678 nmol/min/mg protein | good enzymatic activity
